Results on 2 compounds are retold here after publication PMC12080319 (The Plant Journal, 2025).

Holding throughout (test): microscale thermophoresis
Common to all, as to type: binding

For experiment [1], the target named is T1, OsNAT9 (OsNAT9-GFP) (Oryza sativa, UniProt Q10ET9).
T1 sequence (Q10ET9 1-527): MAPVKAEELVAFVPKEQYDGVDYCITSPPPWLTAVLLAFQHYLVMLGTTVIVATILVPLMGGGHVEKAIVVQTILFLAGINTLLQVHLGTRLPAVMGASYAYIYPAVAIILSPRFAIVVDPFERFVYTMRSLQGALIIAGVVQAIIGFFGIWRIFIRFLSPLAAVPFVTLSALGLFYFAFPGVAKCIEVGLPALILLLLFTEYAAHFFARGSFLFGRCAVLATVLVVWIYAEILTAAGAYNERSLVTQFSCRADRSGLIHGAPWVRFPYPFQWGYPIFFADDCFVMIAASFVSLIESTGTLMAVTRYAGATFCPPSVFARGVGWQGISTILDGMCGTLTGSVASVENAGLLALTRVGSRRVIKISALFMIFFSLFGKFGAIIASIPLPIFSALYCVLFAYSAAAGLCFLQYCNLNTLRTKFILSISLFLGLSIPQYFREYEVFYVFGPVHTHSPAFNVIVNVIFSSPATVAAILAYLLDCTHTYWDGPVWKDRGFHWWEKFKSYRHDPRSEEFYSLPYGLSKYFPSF

The target of experiment [2] is T2, OsNAT9 (OsNAT9-GFP) (Oryza sativa, UniProt Q10ET9, G349A).
T2 sequence (Q10ET9 1-527 G349A): T1 sequence (Q10ET9 1-527) with G349A

For experiment [3], the target named is T3, OsNAT9 (OsNAT9-GFP) (Oryza sativa, UniProt Q10ET9, E346A).
T3 sequence (Q10ET9 1-527 E346A): T1 sequence (Q10ET9 1-527) with E346A

Experiment [4] concerns the target T4, OsNAT9 (OsNAT9-GFP) (Oryza sativa, UniProt Q10ET9, S344A).
T4 sequence (Q10ET9 1-527 S344A): T1 sequence (Q10ET9 1-527) with S344A

Changes are numbered by the printed parent chain.

As a reminder, the Kd is the free concentration of one partner at which half of the binding sites on the other are occupied at equilibrium, for simple one-to-one binding. With `O=C1O[C@H]([C@@H](O)CO)C(O)=C1O` [AsA, ascorbic acid], the Kd at OsNAT9 (OsNAT9-GFP) [1] stood at 0.28 ± 0.23 nM; on OsNAT9 (OsNAT9-GFP) [2], 0.55 ± 0.53 nM; on OsNAT9 (OsNAT9-GFP) [3], 80.7 ± 6.06 nM; on OsNAT9 (OsNAT9-GFP) [4], 101 ± 27.6 nM.
The compound `O=c1[nH]c(=O)c2[nH]cnc2[nH]1` [xanthine] showed a Kd on OsNAT9 (OsNAT9-GFP) [1] of 0.39 ± 0.11 nM.
